Measurements reported in PubChem BioAssay AID1963848 (Molecular Pharmacology Branch, DTP, NCI, 2024).
“And” between values parts separate entries of the source, which are not always exact repeats. Equal entries are not always repeated.

Test system: 379773-124-R-J2-PDC spheroid viability
Assay: Anticancer human tumor 379773-124-R-J2-PDC patient-derived endometrial carcinoma cell line growth inhibition [POLQ]
Settings: spheroids with HUVEC and MSC; for viability, T/C: stronger effect = lower value
Procedure, shortened: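 Growth inhibition in 3D: complex spheroids (tumor PDC, HUVEC, MSC) treated with POLQ inhibitor combinations; where Cmax unknown, highest tested concentration 10 microM, except SN-38 at 1 microM.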

[1] = curve of first compound, second compound 0.0316 µM
[2] = curve of first compound, second compound 0.1 µM
[3] = curve of first compound, second compound 0.316 µM
[4] = curve of first compound, second compound 1 µM
[5] = curve of first compound, second compound 3.16 µM
[6] = curve of first compound, second compound 10 µM
[7] = second compound 0.0316 µM, first compound 0.0316 µM
[8] = second compound 0.0316 µM, first compound 0.1 µM
[9] = second compound 0.1 µM, first compound 0.0316 µM
[10] = second compound 0.1 µM, first compound 0.1 µM
[11] = second compound 0.316 µM, first compound 0.0316 µM
[12] = second compound 0.316 µM, first compound 0.1 µM
[13] = second compound 1 µM, first compound 0.0316 µM
[14] = second compound 1 µM, first compound 0.1 µM
[15] = second compound 3.16 µM, first compound 0.0316 µM
[16] = second compound 3.16 µM, first compound 0.1 µM
[17] = second compound 10 µM, first compound 0.0316 µM
[18] = second compound 10 µM, first compound 0.1 µM
[19] = second compound 0.0316 µM, first compound 0.316 µM
[20] = second compound 0.0316 µM, first compound 1 µM
[21] = second compound 0.0316 µM, first compound 3.16 µM
[22] = second compound 0.0316 µM, first compound 10 µM
[23] = second compound 0.1 µM, first compound 0.316 µM
[24] = second compound 0.1 µM, first compound 1 µM
[25] = second compound 0.1 µM, first compound 3.16 µM
[26] = second compound 0.1 µM, first compound 10 µM
[27] = second compound 0.316 µM, first compound 0.316 µM
[28] = second compound 0.316 µM, first compound 1 µM
[29] = second compound 0.316 µM, first compound 3.16 µM
[30] = second compound 0.316 µM, first compound 10 µM
[31] = second compound 1 µM, first compound 0.316 µM
[32] = second compound 1 µM, first compound 1 µM
[33] = second compound 1 µM, first compound 3.16 µM
[34] = second compound 1 µM, first compound 10 µM
[35] = second compound 3.16 µM, first compound 0.316 µM
[36] = second compound 3.16 µM, first compound 1 µM
[37] = second compound 3.16 µM, first compound 3.16 µM
[38] = second compound 3.16 µM, first compound 10 µM
[39] = second compound 10 µM, first compound 0.316 µM
[40] = second compound 10 µM, first compound 1 µM
[41] = second compound 10 µM, first compound 3.16 µM
[42] = second compound 10 µM, first compound 10 µM
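Note: spheroids exposed to drugs for seven days before readout.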
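Throughout, for viability, T/C: percent viability relative to DMSO vehicle control taken as 100%.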

CC[C@@]1(O)C(=O)OCc2c1cc1n(c2=O)Cc2cc3c(CN(C)C)c(O)ccc3nc2-1 + COC1C(OC(N)=O)C(O)C(Oc2ccc3c(O)c(NC(=O)c4ccc(O)c(CC=C(C)C)c4)c(=O)oc3c2C)OC1(C)C
IC50 [1]: 32.5 nM
IC50 [2]: 19.2 nM
IC50 [3]: 19 nM
IC50 [4]: 17 nM
IC50 [5]: 21.9 nM
IC50 [6]: 21 nM
viability, T/C (second compound 0.0316 µM, first compound 0.000316 µM): 86.5%
viability, T/C (second compound 0.0316 µM, first compound 0.001 µM): 79.3%
viability, T/C (second compound 0.0316 µM, first compound 0.00316 µM): 85.7%
viability, T/C (second compound 0.0316 µM, first compound 0.01 µM): 73.5%
viability, T/C [7]: 51.2%
viability, T/C [8]: 10.9%
viability, T/C (second compound 0.1 µM, first compound 0.000316 µM): 73.3%
viability, T/C (second compound 0.1 µM, first compound 0.001 µM): 77.8%
viability, T/C (second compound 0.1 µM, first compound 0.00316 µM): 74.1%
viability, T/C (second compound 0.1 µM, first compound 0.01 µM): 71.2%
viability, T/C [9]: 33.9%
viability, T/C [10]: 14.1%
viability, T/C (second compound 0.316 µM, first compound 0.000316 µM): 85.7%
viability, T/C (second compound 0.316 µM, first compound 0.001 µM): 78.6%
viability, T/C (second compound 0.316 µM, first compound 0.00316 µM): 78.2%
viability, T/C (second compound 0.316 µM, first compound 0.01 µM): 71.2%
viability, T/C [11]: 33.6%
viability, T/C [12]: 12.1%
viability, T/C (second compound 1 µM, first compound 0.000316 µM): 86.4%
viability, T/C (second compound 1 µM, first compound 0.001 µM): 94.9%
viability, T/C (second compound 1 µM, first compound 0.00316 µM): 72.6%
viability, T/C (second compound 1 µM, first compound 0.01 µM): 68%
viability, T/C [13]: 32.2%
viability, T/C [14]: 9.89%
viability, T/C (second compound 3.16 µM, first compound 0.000316 µM): 76.9%
viability, T/C (second compound 3.16 µM, first compound 0.001 µM): 71.5%
viability, T/C (second compound 3.16 µM, first compound 0.00316 µM): 83.1%
viability, T/C (second compound 3.16 µM, first compound 0.01 µM): 65%
viability, T/C [15]: 42.4%
viability, T/C [16]: 11.6%
viability, T/C (second compound 10 µM, first compound 0.000316 µM): 72.9%
viability, T/C (second compound 10 µM, first compound 0.001 µM): 73.3%
viability, T/C (second compound 10 µM, first compound 0.00316 µM): 82.5%
viability, T/C (second compound 10 µM, first compound 0.01 µM): 69.6%
viability, T/C [17]: 38.8%
viability, T/C [18]: 12.5%

CC(C)n1c(=O)n(C)c2cnc3cc(F)c(-c4ccc(OCCCN5CCCCC5)nc4)cc3c21
viability, T/C (compound 0.0316 µM): 77.5% and 102% and 83.2%
viability, T/C (compound 0.1 µM): 79.5% and 84.1% and 87.8%
viability, T/C (compound 0.316 µM): 78.7% and 88.7% and 68%
viability, T/C (compound 1 µM): 76.8% and 87.2% and 74.2%
viability, T/C (compound 3.16 µM): 80% and 93.2% and 82.2%
viability, T/C (compound 10 µM): 53.6% and 72.2% and 62.8%
IC50 (curve of compound): > 10000 nM

COc1ccc([C@@H](O)c2cc(-c3ncnc4cc(N5CCOCC5)ccc34)c(F)cc2Cl)nn1 + COC1C(OC(N)=O)C(O)C(Oc2ccc3c(O)c(NC(=O)c4ccc(O)c(CC=C(C)C)c4)c(=O)oc3c2C)OC1(C)C
IC50 [1]: 7230 nM
IC50 [2]: 9890 nM
IC50 [3]: 7300 nM
IC50 [4]: 8150 nM
IC50 [5]: 7850 nM
IC50 [6]: 7090 nM
viability, T/C [7]: 89.6%
viability, T/C [8]: 85.1%
viability, T/C [19]: 88.3%
viability, T/C [20]: 80%
viability, T/C [21]: 81.1%
viability, T/C [22]: 37.6%
viability, T/C [9]: 81.4%
viability, T/C [10]: 81.4%
viability, T/C [23]: 91.5%
viability, T/C [24]: 81.1%
viability, T/C [25]: 91.1%
viability, T/C [26]: 49.7%
viability, T/C [11]: 92.6%
viability, T/C [12]: 82.1%
viability, T/C [27]: 79.1%
viability, T/C [28]: 81.6%
viability, T/C [29]: 75.1%
viability, T/C [30]: 40.4%
viability, T/C [13]: 74.2%
viability, T/C [14]: 83.1%
viability, T/C [31]: 83.9%
viability, T/C [32]: 87.8%
viability, T/C [33]: 82.1%
viability, T/C [34]: 43.1%
viability, T/C [15]: 81%
viability, T/C [16]: 83.3%
viability, T/C [35]: 96.7%
viability, T/C [36]: 77.5%
viability, T/C [37]: 78.5%
viability, T/C [38]: 42.5%
viability, T/C [17]: 80.3%
viability, T/C [18]: 75.8%
viability, T/C [39]: 82.6%
viability, T/C [40]: 80.1%
viability, T/C [41]: 95.8%
viability, T/C [42]: 35.9%

CC1COCCN1c1cc(C2(S(C)(=N)=O)CC2)nc(-c2ccnc3[nH]ccc23)n1 (configuration not stated) + Nc1ccc(C#CCN(C(=O)Cc2ncc(C(F)(F)F)cc2C(F)(F)F)c2ccc(F)cc2)nn1
IC50 [1]: 2760 nM
IC50 [2]: 3070 nM
IC50 [3]: 2670 nM
IC50 [4]: 3050 nM
IC50 [5]: 2540 nM
IC50 [6]: 2640 nM
viability, T/C [7]: 89.8%
viability, T/C [8]: 90.3%
viability, T/C [19]: 86.5%
viability, T/C [20]: 89.9%
viability, T/C [21]: 44.8%
viability, T/C [22]: 9.42%
viability, T/C [9]: 89.2%
viability, T/C [10]: 89.6%
viability, T/C [23]: 87.9%
viability, T/C [24]: 83.5%
viability, T/C [25]: 49.1%
viability, T/C [26]: 9.47%
viability, T/C [11]: 89.8%
viability, T/C [12]: 97.5%
viability, T/C [27]: 87.1%
viability, T/C [28]: 84.4%
viability, T/C [29]: 44%
viability, T/C [30]: 10.4%
viability, T/C [13]: 97.9%
viability, T/C [14]: 101%
viability, T/C [31]: 87.9%
viability, T/C [32]: 85.3%
viability, T/C [33]: 48.1%
viability, T/C [34]: 10.3%
viability, T/C [15]: 93.5%
viability, T/C [16]: 85.6%
viability, T/C [35]: 78.5%
viability, T/C [36]: 89.3%
viability, T/C [37]: 41.3%
viability, T/C [38]: 11.1%
viability, T/C [17]: 95.7%
viability, T/C [18]: 85.3%
viability, T/C [39]: 90.9%
viability, T/C [40]: 86.4%
viability, T/C [41]: 43.2%
viability, T/C [42]: 9.54%

C#Cc1c(F)ccc2cc(O)cc(-c3ncc4c(N5CC6CCC(C5)N6)nc(OCC56CCCN5CC(F)C6)nc4c3F)c12 (configuration not stated)
viability, T/C (compound 0.0316 µM): 89.7% and 98.6% and 95.6%
viability, T/C (compound 0.1 µM): 75.8% and 86.8% and 84.9%
viability, T/C (compound 0.316 µM): 76.9% and 105% and 79.6%
viability, T/C (compound 1 µM): 82.7% and 98.4% and 90.6%
viability, T/C (compound 3.16 µM): 87.1% and 98.4% and 87.7%
viability, T/C (compound 10 µM): 81.7% and 93% and 90.7%
IC50 (curve of compound): > 10000 nM

CC[C@@]1(O)C(=O)OCc2c1cc1n(c2=O)Cc2cc3c(CN(C)C)c(O)ccc3nc2-1
viability, T/C (compound 0.000316 µM): 86.7% and 95.5% and 87.2%
viability, T/C (compound 0.001 µM): 82.9% and 87.3% and 91.6%
viability, T/C (compound 0.00316 µM): 97.8% and 92.2% and 75.9%
viability, T/C (compound 0.01 µM): 78.5% and 86.5% and 81.9%
viability, T/C (compound 0.0316 µM): 45.8% and 43% and 45.2%
viability, T/C (compound 0.1 µM): 14.7% and 26.1% and 10.6%
IC50 (curve of compound): 27.2 nM and 26.3 nM and 27.1 nM
